Laboratory results taken from PubChem BioAssay (NCI).
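In this assay, cells in 96-well plates receive the compound at five concentrations for 48 hours. Endpoints are linearly interpolated between the surrounding concentrations. TGI: total growth inhibition.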 Active and inactive are the calls of the source. Rule as the data show it: active = GI50 below about 0.43 µM; inactive = the rest.

How the values were obtained:
Test in all cases: NCI anticancer screen, dose series, 48 h
A549 NSCLC = system: A549 NSCLC
K-562 leukemia = system: K-562 leukemia
COLO 205 colon = system: COLO 205 colon
RPMI-8226 leukemia = system: RPMI-8226 leukemia
U251 CNS = system: U251 CNS
NCI-H460 lung = system: NCI-H460 lung
IGROV1 ovarian = system: IGROV1 ovarian
MOLT-4 leukemia = system: MOLT-4 leukemia
PC-3 prostate = system: PC-3 prostate
MDA-MB-231 breast = system: MDA-MB-231 breast
SW-620 colon = system: SW-620 colon
MCF7 breast = system: MCF7 breast
ACHN renal = system: ACHN renal
M14 melanoma = system: M14 melanoma
EKVX NSCLC = system: EKVX NSCLC
CAKI-1 renal = system: CAKI-1 renal
T-47D breast = system: T-47D breast
MALME-3M melanoma = system: MALME-3M melanoma
SN12C renal = system: SN12C renal
SNB-19 CNS = system: SNB-19 CNS
OVCAR-5 ovarian = system: OVCAR-5 ovarian
CCRF-CEM leukemia = system: CCRF-CEM leukemia
SK-MEL-5 melanoma = system: SK-MEL-5 melanoma
HCT-15 colon = system: HCT-15 colon
SR leukemia = system: SR leukemia
NCI-H522 lung = system: NCI-H522 lung
SNB-75 CNS = system: SNB-75 CNS
UACC-257 melanoma = system: UACC-257 melanoma
OVCAR-8 ovarian = system: OVCAR-8 ovarian
HCT-116 colon = system: HCT-116 colon
MDA-MB-435 = system: MDA-MB-435
A498 renal = system: A498 renal
UACC-62 melanoma = system: UACC-62 melanoma
UO-31 renal = system: UO-31 renal
SK-MEL-28 melanoma = system: SK-MEL-28 melanoma
SF-539 CNS = system: SF-539 CNS
HCC-2998 colon = system: HCC-2998 colon
SK-MEL-2 melanoma = system: SK-MEL-2 melanoma
KM12 colon = system: KM12 colon
HL-60(TB) leukemia = system: HL-60(TB) leukemia
SK-OV-3 ovarian = system: SK-OV-3 ovarian
LOX IMVI melanoma = system: LOX IMVI melanoma
HOP-92 NSCLC = system: HOP-92 NSCLC
HS 578T breast = system: HS 578T breast
OVCAR-4 ovarian = system: OVCAR-4 ovarian
NCI-H226 lung = system: NCI-H226 lung
786-0 renal = system: 786-0 renal
MDA-N = system: MDA-N
BT-549 breast = system: BT-549 breast
HOP-62 NSCLC = system: HOP-62 NSCLC
NCI/ADR-RES ovarian = system: NCI/ADR-RES ovarian
HT29 colon = system: HT29 colon
TK-10 renal = system: TK-10 renal
OVCAR-3 ovarian = system: OVCAR-3 ovarian
DU-145 prostate = system: DU-145 prostate
SF-295 CNS = system: SF-295 CNS
NCI-H23 lung = system: NCI-H23 lung
SF-268 CNS = system: SF-268 CNS

Measured: TGI

O=C(O)CCN1CCN(CCC(=O)O)CCN(CCC(=O)O)CC1
89.3 µM: HL-60(TB) leukemia
not listed: NCI-H23 lung | SF-268 CNS
> 100 µM: all other assays above

O=c1cc(-c2ccc(O)c(O)c2-c2c(O)cc(O)c3c(=O)cc(-c4ccc(O)c(O)c4)oc23)oc2cc(O)cc(O)c12
not listed: NCI-H460 lung
inactive: all other assays above

COC(=O)c1cc2/c(=N/O)c3ccccc3sc2o1
not listed: UO-31 renal
> 100 µM: all other assays above
